The target in experiment [1] is Serine/threonine-protein kinase pim-3 (Homo sapiens) (UniProt Q86V86).
Experiment [2] addresses T1, Serine/threonine-protein kinase PLK4 (Homo sapiens) (UniProt O00444).
T1 sequence (whole entry): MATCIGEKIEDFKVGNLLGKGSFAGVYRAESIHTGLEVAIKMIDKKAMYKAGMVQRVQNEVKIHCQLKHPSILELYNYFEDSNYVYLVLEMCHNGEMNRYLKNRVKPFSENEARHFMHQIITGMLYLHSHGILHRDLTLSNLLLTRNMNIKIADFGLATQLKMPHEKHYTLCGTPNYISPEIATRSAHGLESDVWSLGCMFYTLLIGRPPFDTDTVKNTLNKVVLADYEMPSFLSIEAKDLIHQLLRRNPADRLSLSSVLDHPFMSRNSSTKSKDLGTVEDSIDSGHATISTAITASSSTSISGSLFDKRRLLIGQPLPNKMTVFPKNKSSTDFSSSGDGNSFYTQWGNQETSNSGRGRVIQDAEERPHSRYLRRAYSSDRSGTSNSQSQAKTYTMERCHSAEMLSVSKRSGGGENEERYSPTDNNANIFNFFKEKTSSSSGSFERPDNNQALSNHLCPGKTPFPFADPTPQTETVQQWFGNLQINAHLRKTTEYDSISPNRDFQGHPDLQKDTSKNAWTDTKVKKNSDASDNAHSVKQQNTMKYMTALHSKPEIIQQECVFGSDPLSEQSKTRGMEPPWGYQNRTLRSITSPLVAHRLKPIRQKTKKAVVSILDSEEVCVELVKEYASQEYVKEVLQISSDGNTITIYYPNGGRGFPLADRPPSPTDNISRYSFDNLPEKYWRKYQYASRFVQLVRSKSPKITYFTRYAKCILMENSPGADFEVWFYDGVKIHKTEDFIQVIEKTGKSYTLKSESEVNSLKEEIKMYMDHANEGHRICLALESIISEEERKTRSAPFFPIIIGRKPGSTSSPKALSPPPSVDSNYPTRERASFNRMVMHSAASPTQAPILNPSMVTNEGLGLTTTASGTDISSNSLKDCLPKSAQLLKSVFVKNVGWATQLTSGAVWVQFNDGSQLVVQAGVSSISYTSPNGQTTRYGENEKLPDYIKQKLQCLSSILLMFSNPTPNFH

Experiment [3] concerns the target Cyclin-dependent kinase 16 (Homo sapiens) (UniProt Q00536).
Experiment [4] concerns the target Serine/threonine-protein kinase OSR1 (Homo sapiens) (UniProt O95747).
The target of experiment [5] is Calcium/calmodulin-dependent protein kinase type 1D (Homo sapiens) (UniProt Q8IU85).
Sequence of Calcium/calmodulin-dependent protein kinase type 1D (Homo sapiens) (Q8IU85 whole entry, looked up): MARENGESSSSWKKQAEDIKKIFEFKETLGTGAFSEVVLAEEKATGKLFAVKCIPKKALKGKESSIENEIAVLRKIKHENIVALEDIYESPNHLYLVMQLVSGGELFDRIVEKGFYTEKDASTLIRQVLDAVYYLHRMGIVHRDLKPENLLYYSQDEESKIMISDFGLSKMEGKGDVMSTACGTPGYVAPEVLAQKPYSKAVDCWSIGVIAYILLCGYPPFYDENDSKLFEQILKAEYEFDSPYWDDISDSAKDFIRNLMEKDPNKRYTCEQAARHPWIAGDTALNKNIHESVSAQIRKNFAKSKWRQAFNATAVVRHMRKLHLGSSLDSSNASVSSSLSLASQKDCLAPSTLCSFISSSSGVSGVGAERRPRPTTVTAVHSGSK
Experiment [6] concerns the target T2, Lymphokine-activated killer T-cell-originated protein kinase (Homo sapiens) (UniProt Q96KB5).
T2 sequence (whole entry): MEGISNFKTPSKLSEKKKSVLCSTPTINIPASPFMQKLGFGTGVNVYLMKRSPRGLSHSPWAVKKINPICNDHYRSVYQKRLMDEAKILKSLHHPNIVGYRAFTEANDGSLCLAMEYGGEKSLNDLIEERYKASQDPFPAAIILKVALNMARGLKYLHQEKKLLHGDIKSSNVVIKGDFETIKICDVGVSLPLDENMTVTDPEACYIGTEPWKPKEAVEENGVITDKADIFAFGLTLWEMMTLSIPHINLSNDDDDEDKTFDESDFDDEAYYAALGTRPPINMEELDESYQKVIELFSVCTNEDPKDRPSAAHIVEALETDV

Experiment [7] deals with Dual specificity protein kinase CLK1 (Homo sapiens) (UniProt P49759).
Sequence of Dual specificity protein kinase CLK1 (Homo sapiens) (P49759 whole entry, looked up, canonical isoform): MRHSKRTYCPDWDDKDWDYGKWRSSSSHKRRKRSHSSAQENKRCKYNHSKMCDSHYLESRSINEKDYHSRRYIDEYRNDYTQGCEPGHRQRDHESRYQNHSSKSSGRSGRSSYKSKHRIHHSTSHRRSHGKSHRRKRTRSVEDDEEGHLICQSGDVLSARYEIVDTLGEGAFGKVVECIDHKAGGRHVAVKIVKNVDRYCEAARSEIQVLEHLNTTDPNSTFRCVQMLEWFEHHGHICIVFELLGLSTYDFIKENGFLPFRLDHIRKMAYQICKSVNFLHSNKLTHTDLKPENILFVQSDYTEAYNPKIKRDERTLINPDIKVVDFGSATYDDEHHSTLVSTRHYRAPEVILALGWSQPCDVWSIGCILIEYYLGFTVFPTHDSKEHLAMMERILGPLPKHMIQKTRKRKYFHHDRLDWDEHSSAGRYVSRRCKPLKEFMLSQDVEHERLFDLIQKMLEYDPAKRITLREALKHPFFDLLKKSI
Experiment [8] deals with Casein kinase I isoform gamma-3 (Homo sapiens) (UniProt Q9Y6M4).
Sequence of Casein kinase I isoform gamma-3 (Homo sapiens) (Q9Y6M4 whole entry, looked up, canonical isoform): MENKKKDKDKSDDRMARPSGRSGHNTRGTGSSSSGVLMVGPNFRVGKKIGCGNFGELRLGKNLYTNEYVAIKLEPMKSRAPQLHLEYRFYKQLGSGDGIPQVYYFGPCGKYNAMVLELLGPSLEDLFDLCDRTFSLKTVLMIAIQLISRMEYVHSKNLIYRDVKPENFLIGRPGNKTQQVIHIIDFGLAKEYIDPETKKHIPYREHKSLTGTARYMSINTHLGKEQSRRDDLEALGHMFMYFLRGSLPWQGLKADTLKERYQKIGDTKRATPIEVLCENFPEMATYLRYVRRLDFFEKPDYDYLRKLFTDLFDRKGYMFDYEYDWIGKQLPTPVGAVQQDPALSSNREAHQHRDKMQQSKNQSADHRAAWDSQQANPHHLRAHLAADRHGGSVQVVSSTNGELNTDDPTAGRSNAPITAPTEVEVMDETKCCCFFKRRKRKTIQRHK
The target in experiment [9] is T3, 3-phosphoinositide-dependent protein kinase 1 (Homo sapiens) (UniProt O15530).
T3 sequence (whole entry): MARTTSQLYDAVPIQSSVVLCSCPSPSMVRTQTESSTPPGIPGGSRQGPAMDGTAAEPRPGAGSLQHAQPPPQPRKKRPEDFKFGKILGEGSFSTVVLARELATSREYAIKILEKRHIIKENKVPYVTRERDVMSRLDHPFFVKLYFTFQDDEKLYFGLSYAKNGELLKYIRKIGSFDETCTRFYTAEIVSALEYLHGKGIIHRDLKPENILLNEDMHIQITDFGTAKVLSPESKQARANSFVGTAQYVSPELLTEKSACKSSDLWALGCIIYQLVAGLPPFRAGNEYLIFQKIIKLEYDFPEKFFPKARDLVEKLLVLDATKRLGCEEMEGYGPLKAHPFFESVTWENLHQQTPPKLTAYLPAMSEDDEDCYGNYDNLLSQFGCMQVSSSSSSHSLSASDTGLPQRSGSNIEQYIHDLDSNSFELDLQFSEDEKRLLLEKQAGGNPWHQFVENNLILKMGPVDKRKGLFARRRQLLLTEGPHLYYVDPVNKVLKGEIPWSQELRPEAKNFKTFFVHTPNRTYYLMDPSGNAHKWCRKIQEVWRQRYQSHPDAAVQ

Experiment [10] addresses Dual specificity mitogen-activated protein kinase kinase 2 (Homo sapiens, UniProt P36507).
Experiment [11] has as its target Serine/threonine-protein kinase RIO2 (Homo sapiens) (UniProt Q9BVS4).
The target in experiment [12] is STE20-like serine/threonine-protein kinase (Homo sapiens) (UniProt Q9H2G2).
Sequence of STE20-like serine/threonine-protein kinase (Homo sapiens) (Q9H2G2 whole entry, looked up): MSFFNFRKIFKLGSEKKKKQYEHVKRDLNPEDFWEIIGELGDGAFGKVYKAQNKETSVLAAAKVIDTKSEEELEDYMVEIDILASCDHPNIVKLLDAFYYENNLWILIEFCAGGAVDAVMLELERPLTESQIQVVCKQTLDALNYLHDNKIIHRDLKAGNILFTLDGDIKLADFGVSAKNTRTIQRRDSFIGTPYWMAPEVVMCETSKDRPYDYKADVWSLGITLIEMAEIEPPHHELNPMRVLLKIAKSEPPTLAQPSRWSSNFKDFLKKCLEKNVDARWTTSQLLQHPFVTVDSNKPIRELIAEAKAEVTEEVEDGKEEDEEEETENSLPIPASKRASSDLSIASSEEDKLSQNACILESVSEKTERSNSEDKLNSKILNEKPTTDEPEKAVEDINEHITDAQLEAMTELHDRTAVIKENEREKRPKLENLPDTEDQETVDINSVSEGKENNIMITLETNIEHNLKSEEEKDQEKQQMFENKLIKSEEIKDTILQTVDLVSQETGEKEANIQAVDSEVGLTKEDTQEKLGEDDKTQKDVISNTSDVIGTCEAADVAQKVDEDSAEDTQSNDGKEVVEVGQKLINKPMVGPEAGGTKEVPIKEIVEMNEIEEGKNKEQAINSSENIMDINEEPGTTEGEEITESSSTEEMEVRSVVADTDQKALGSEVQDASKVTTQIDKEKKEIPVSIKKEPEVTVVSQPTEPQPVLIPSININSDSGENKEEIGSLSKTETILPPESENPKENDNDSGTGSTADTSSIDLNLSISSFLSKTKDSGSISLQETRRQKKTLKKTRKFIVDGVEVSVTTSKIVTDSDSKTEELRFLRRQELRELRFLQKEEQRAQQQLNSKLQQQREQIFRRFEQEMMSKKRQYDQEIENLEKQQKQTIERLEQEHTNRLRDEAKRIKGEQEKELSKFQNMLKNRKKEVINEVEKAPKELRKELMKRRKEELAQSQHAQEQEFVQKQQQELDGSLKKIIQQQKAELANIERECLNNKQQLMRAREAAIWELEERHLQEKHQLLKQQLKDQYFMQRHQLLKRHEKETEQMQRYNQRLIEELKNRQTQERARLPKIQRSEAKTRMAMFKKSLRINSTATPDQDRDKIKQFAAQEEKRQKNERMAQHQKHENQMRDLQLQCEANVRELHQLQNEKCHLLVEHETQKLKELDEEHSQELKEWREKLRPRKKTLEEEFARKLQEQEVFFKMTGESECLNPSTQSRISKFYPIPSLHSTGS
Experiment [13] addresses Dual specificity protein kinase CLK3 (Homo sapiens) (UniProt P49761).
Experiment [14] concerns the target Casein kinase I isoform gamma-2 (Homo sapiens) (UniProt P78368).
Experiment [15] has as its target Dual specificity protein kinase CLK2 (Homo sapiens) (UniProt P49760).
In experiment [16] the target is cAMP-dependent protein kinase catalytic subunit alpha (Homo sapiens) (UniProt P17612).
For experiment [17], the target named is Mitogen-activated protein kinase 6 (Homo sapiens) (UniProt Q16659).

Sequence of Cyclin-dependent kinase 16 (Homo sapiens) (Q00536 whole entry): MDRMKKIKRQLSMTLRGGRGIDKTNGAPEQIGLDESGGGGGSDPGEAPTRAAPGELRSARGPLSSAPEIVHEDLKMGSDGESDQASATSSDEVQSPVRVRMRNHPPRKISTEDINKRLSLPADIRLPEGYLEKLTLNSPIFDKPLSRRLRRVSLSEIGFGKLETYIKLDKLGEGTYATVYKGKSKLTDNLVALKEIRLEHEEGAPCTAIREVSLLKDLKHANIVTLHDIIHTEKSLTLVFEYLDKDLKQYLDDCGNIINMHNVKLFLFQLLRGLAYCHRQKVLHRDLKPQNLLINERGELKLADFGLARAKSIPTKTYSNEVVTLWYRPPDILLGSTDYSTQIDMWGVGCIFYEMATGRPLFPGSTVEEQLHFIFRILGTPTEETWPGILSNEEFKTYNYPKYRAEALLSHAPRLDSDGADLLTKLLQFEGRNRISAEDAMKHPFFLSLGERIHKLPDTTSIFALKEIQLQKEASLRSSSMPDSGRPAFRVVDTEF
Sequence of Casein kinase I isoform gamma-2 (Homo sapiens) (P78368 whole entry, looked up, canonical isoform): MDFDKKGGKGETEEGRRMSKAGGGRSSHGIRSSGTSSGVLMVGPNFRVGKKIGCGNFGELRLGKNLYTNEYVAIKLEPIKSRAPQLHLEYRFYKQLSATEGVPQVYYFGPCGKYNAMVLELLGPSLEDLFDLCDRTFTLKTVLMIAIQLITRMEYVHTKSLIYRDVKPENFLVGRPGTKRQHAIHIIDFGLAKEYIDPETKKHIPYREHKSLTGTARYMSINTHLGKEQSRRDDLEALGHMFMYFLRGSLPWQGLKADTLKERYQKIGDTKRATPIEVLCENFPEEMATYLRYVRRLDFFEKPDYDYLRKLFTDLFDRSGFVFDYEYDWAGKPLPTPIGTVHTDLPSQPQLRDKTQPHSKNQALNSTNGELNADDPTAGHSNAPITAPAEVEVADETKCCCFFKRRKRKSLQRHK
Sequence of Dual specificity protein kinase CLK3 (Homo sapiens) (P49761 whole entry, looked up, canonical isoform): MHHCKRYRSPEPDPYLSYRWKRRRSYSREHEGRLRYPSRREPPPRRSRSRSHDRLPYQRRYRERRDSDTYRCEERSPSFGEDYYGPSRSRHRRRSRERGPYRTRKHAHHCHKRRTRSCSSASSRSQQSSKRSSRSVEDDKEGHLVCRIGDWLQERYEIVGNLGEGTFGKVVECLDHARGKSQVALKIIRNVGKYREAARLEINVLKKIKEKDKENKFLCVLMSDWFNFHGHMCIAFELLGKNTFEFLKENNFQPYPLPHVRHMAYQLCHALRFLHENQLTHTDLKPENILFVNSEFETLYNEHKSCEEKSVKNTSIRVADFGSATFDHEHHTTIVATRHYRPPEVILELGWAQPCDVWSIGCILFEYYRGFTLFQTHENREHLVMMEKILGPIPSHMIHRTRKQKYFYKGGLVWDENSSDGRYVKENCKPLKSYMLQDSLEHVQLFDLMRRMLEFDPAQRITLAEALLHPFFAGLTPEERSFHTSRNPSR
Sequence of Dual specificity mitogen-activated protein kinase kinase 2 (P36507 whole entry): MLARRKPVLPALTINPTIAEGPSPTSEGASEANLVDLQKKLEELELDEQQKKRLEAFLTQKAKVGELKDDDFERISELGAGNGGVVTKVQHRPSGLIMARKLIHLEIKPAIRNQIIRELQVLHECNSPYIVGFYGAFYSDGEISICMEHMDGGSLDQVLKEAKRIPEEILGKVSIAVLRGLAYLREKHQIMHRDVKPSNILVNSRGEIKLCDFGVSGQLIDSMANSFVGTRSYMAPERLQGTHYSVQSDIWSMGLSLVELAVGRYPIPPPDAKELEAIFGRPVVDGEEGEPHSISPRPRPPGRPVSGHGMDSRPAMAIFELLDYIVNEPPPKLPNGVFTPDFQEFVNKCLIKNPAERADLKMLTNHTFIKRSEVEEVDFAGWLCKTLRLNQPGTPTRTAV

As a reminder, the ΔTm is the shift of the melting midpoint relative to a reference. Consider `COC1=C2C[C@@H](C)C[C@H](OC)[C@H](O)[C@@H](C)/C=C(\C)[C@H](OC(N)=O)[C@@H](OC)/C=C\C=C(/C)C(=O)NC(=CC1=O)C2=O`, for which the ΔTm is 0.5 °C in experiment [1]; 0.2 °C in experiment [2]; -0.4 °C in experiment [3]; 0.8 °C in experiment [4]; 0.1 °C in experiment [5]; 0.6 °C in experiment [6]. The ΔTm in experiment [7] was 0.6 °C; in [8] it was 0.4 °C; in [9] it was 0 °C; in experiment [10] it was -0.5 °C; in [11], -0.6 °C; in experiment [12] it was 1.7 °C. Besides, the ΔTm is -0.1 °C in [13]; 0.4 °C in experiment [14]; -0.1 °C in experiment [15]; 1.1 °C in experiment [16]; 0.1 °C in [17].
`CC(C)N(CCO)c1nc(Nc2cccc(Cl)c2)c2ncn(C(C)C)c2n1`: the ΔTm was 1.4 °C in experiment [1]; 1.2 °C in [2]; 0.8 °C in experiment [3]; 1.3 °C in [4]; 0.4 °C in experiment [5]; 0 °C in experiment [6]. Also, the ΔTm in experiment [7] was 5.9 °C; in experiment [8], 6.7 °C; in experiment [9], -0.8 °C; in experiment [10] it was 0.6 °C; in experiment [11], 0.1 °C; in experiment [12] it was 2.9 °C. Also, the ΔTm was 4.2 °C in experiment [13]; 3.8 °C in [14]; 5.8 °C in experiment [15]; 1.6 °C in experiment [16]; 0.1 °C in experiment [17].
As to `CN1CCC(Nc2ncc3ncnc(Nc4ccc(F)c(Cl)c4)c3n2)CC1` [FALNIDAMOL], the ΔTm in [1] worked out at 0.5 °C; in experiment [2] it was 0.3 °C; in experiment [3], 7.7 °C; in experiment [4] it was 1.4 °C; in experiment [5], 0.7 °C; in experiment [7], 0.5 °C. The ΔTm in [8] was 0 °C; in experiment [9], 0.1 °C; in [10], 0.9 °C; in experiment [11], -0.4 °C; in experiment [13] it was 2.7 °C; in [14], -0.2 °C. For the same molecule, the ΔTm in [15] came to 4.2 °C; in [16] it was 0.4 °C; in experiment [17], 0 °C.
As to `CN[C@@H]1CC2O[C@@](C)([C@@H]1OC)n1c3ccccc3c3c4c(c5c6ccccc6n2c5c31)C(=O)NC4`, the ΔTm in experiment [1] is 17.7 °C; in experiment [2] it was 21.2 °C; in experiment [4], 6.9 °C; in experiment [6], 0.4 °C; in experiment [8] it was 1.9 °C; in experiment [9], -0.7 °C. The ΔTm in [11] stood at 0.5 °C; in experiment [12] it was 20.1 °C; in experiment [13] it was 4.2 °C; in experiment [15], 6.9 °C; in experiment [16], 11.3 °C; in experiment [17], 1 °C.
With `Clc1ccc(Nc2nnc(Cc3ccncc3)c3ccccc23)cc1`, the ΔTm was -0.4 °C in experiment [1]; 0.4 °C in experiment [2]; 0.2 °C in experiment [3]; 0.8 °C in experiment [4]; 0.6 °C in [5]; 0.1 °C in experiment [7]. Moreover, the ΔTm in [8] was -0.2 °C; in [9], 4 °C; in experiment [10] it was 0.5 °C; in [11], -0.8 °C; in [13], 1.1 °C; in experiment [14], 0 °C. In addition, the ΔTm in [15] was -0.6 °C; in experiment [16], 0.2 °C; in [17] it was 1.3 °C.
Turning to `Cc1nc(Nc2ncc(C(=O)Nc3c(C)cccc3Cl)s2)cc(N2CCN(CCO)CC2)n1`, the ΔTm in [1] was -0.2 °C; in experiment [2], 2.5 °C; in experiment [3], -0.4 °C; in experiment [4] it was 0.4 °C; in experiment [5], 0.9 °C; in experiment [7], 0.4 °C. Besides, the ΔTm in [8] is 1.2 °C; in experiment [9] it was 6.8 °C; in [10], -0.2 °C; in experiment [11], 2.3 °C; in experiment [13] it was 4.1 °C; in experiment [14], 0.2 °C. The ΔTm in experiment [15] was 0.1 °C; in experiment [16], 0.4 °C; in [17], 0.9 °C.
As to `COC(=O)[C@]1(O)C[C@@H]2O[C@@]1(C)n1c3ccccc3c3c4c(c5c6ccccc6n2c5c31)C(=O)NC4` (single isomer, unassigned), the shift in melting temperature (ΔTm) was determined as 5.8 °C in experiment [1]; 12.5 °C in experiment [2]; 0.8 °C in experiment [3]; 1.8 °C in [4]; 4 °C in [5]; 0.4 °C in experiment [6]. Also, the shift in melting temperature (ΔTm) is 10.6 °C in experiment [7]; 0.2 °C in experiment [8]; -0.4 °C in experiment [9]; 1.4 °C in experiment [11]; 6.3 °C in [12]; 0.6 °C in experiment [13]. The ΔTm in [14] worked out at 0.1 °C; in experiment [15], 4.8 °C; in experiment [16] it was 7.1 °C; in experiment [17], 0.3 °C.
Turning to `Cc1ccc(NC(=O)c2ccc(CN3CCN(C)CC3)cc2)cc1Nc1nccc(-c2cccnc2)n1`, the ΔTm in [1] was 0.2 °C; in [2] it was 0.2 °C; in [3], -0.4 °C; in experiment [4], 0.7 °C; in [5], 0.4 °C; in [6] it was 0.8 °C. The ΔTm is 0.3 °C in experiment [8]; -0.2 °C in experiment [9]; 0.3 °C in [10]; 1.2 °C in [11]; 1.7 °C in experiment [12]; 0.8 °C in experiment [14]. Further, the ΔTm in [16] was 0.8 °C; in experiment [17], 0.5 °C.
On to `CCN(CC)CCNC(=O)c1c(C)[nH]c(/C=C2\C(=O)Nc3ccc(F)cc32)c1C`, for which the ΔTm in [1] is 7.1 °C; in experiment [2], 1.6 °C; in experiment [4], 3 °C; in [6], 0.4 °C; in experiment [7], 5.1 °C; in experiment [9], 2.9 °C. Moreover, the ΔTm in experiment [10] was 2.2 °C; in [11] it was 6 °C; in [12], 6.5 °C; in experiment [13], 2.1 °C; in [15], 5.9 °C; in experiment [16], 9.2 °C.

These data come from ChEMBL document CHEMBL1145498, “A systematic interaction map of validated kinase inhibitors with Ser/Thr kinases” (Proc Natl Acad Sci U S A, 2007).
